Legend:
[1] = tested on: sensory panel of trained judges; details: 6 SEV solution of sucrose; cited from earlier work
[2] = tested on: sensory panel of experienced judges; assay: Descriptive analysis of sweetener attributes on a 15-cm line scale, low (0) to high (60); format: in vivo, human; details: about 6 SEV solution, 0=low, 60=high
Text: The same samples described above were presented to a panel of 6-9 experienced judges for descriptive analysis. Solutions were blind-coded with random 3-digit codes and served at room temperature for evaluation. Panelists individually scored attributes of each sample, such as sweetness intensity, bitterness, astringency, and the presence of side flavors such as licorice or fruitiness. Scores were based on a 15-cm line scale marked with evenly spaced 5-point increments from low (0) to high (60). Samples were evaluated in duplicate. Water and […] crackers were provided for rinsing between samples. A solution of […] was made at 410 ppm in spring water (Ice Mountain, retail) to be about 6 SEV. A second solution was made at about 6 SEV of purified mogroside-V (Chem Faces, CFS202202) at 325 ppm. A panel of 7-8 trained judges evaluated the temporal properties and taste attributes of each sample, including blind duplicates, in the same manner described previously in the Mogroside Blend 80/15/5 Taste Quality sections. The panel also evaluated the intensity of several sensory attributes such as bitterness, astringency, caramel flavor, and fruitiness. The same 15-cm line scale was used for scoring, labeled from low (0) to high (60) with evenly spaced 5-point increments. The samples were served in 4-oz soufflé cups that were labeled with random 3-digit codes. Samples were evaluated at room temperature and included blind duplicates. Water and […] crackers were provided for rinsing between samples. A 400-ppm solution of V90 (Huacheng Bio, LHGE-230401) was tasted as a reference at the beginning of the descriptive analysis session for calibration verification among panelists.

[3] = tested on: sensory panel of trained judges; assay: Concentration response curve: sweetness intensity scored against sucrose reference standards, Beidler equation fit; format: in vivo, human; details: for Potency at 5 SEV: room temperature, P=SEV*10,000/C; for Beidler equation SEV=a*C/(b+C): constant b (concentration) / Beidler equation SEV=a*C/(b+C): constant a (maximum SEV): best fitting Beidler equation; for Beidler equation SEV=a*C/(b+C): constant b (concentration): C in ppm or mg/L; for Beidler equation SEV=a*C/(b+C): constant a (maximum SEV): SEV = % sucrose equivalent sweetness
Description: A blend composed of 80% purified mogroside-V (Chem Faces, CFS202202), 15% 11-oxo-mogroside-V (Chem Faces, CFS202201), and 5% mogroside IIIA-1 (Chem Faces, CFS202201) was diluted to six different concentrations (from 100 ppm to 650 ppm) in spring water (Ice Mountain, retail). For each solution, a set of five reference standards of sucrose dissolved in water in 0.5% (w/w) concentration increments was also prepared. Each concentration of the mogroside blend was evaluated by 6-8 trained judges. Samples were presented in 4-oz soufflé cups at room temperature, and the test sample was labeled with a random 3-digit code. Panelists tasted the blind-coded sample compared to the set of reference samples to determine the sweetness intensity score to the nearest 0.1 unit. Each concentration was evaluated in duplicate. The sweetness intensity scores were then plotted against the mogroside blend concentration to make a concentration response curve, and the best fitting Beidler equation was generated. […] is a 90% pure mogroside V containing about 6% 11-oxo mogroside-V. Five different concentrations of V90 (Huacheng Bio, LHGE-230401), ranging from 100 ppm to 500 ppm, were diluted in spring water (Ice Mountain, retail). Each dilution was presented to a panel of 7-8 judges experienced in evaluating sweeteners and was accompanied by a range of five sucrose solution reference standards bracketing the sweetness intensity of the test sample in 0.5% (w/w) increments. Panelists assigned a sweetness intensity score to each test sample, including blind duplicates, to the nearest 0.1 unit. All samples were served at room temperature in 4-oz soufflé cups with the test samples labeled with random 3-digit codes. Water and […] crackers were provided for rinsing between samples. Both individual mogrosides were also evaluated at five different concentrations in spring water (Ice Mountain, retail) for sweetness intensity. 11-oxo-mogroside was diluted to concentrations ranging from 200 ppm to 600 ppm and mogroside IIIA-1 was diluted to concentrations from 100 to 500 ppm. For each concentration, a set of five sucrose solution reference standards were prepared in 0.5% (w/w) increments to approximately bracket the sweetness intensity of the test sample. A panel of 6-8 trained judges evaluated each test sample in duplicate, accompanied by the corresponding reference standards, and assigned a sweetness intensity score to the sample to the nearest 0.1 unit. Samples were presented in 4-oz soufflé cups at room temperature, and the test sample was labeled with a random 3-digit code. The sweetness intensity scores were then plotted as a function of mogroside concentration to make a concentration response curve, and the best fitting Beidler equation was generated. P=SEV*10,000/C • where C is the concentration of the mogroside blend in ppm or mg/L and SEV is the % sucrose equivalent sweetness determined by sensory panel.

[4] = tested on: sensory panel of trained judges; assay: Temporal properties: onset of sweetness, time to maximum sweetness, decay after expectorating; format: in vivo, human; details: 600 ppm, about 6 SEV, in spring water
Description: Equi-sweet solutions at about 6 SEV were made in spring water (Ice Mountain, retail) of the following sweeteners: purified mogroside-V (Chem Faces, CFS202202), rebaudioside M (95%, Tate & Lyle, lot #1802-2302-1), rebaudioside A (95%, Tate & Lyle, 210617-01), and monk fruit (50% mogroside V, Tate & Lyle, 45GF220305). Another solution was prepared at about 6 SEV of a blend composed of 80% purified mogroside-V (Chem Faces, CFS202202), 15% 11-oxo-mogroside-V (Chem Faces, CFS202201), and 5% mogroside IIIA-1 (Chem Faces, CFS202201). The concentration of each solution can be found in Table 7.
A set of samples of each solution was evaluated by a panel of 7-9 trained judges. Panelists measured the time to onset of sweetness and time to reach maximum sweetness using a timer. Sweetness decay after expectorating was measured by rating sweetness intensity every 5 seconds on a 15-cm line scale graduated in evenly spaced 5-point increments and labeled low (0) to high (60). […] Blind duplicates were evaluated in a second panel under the same conditions.
A solution of V90 was made at 410 ppm in spring water (Ice Mountain, retail) to be about 6 SEV. […] A panel of 7-8 trained judges evaluated the temporal properties and taste attributes of each sample, including blind duplicates, in the same manner described previously in the Mogroside Blend 80/15/5 Taste Quality sections. […]

[5] = in spring water, from Beidler curve

Structure (SMILES)	Astringent, average intensity score [2]	Bitterness, average intensity score [2]	Body, average intensity score [2]	Caramel, average intensity score [2]	Fruity, average intensity score [2]	Licorice, average intensity score [2]	Sweet Linger, average intensity score [2]	Sweetness, average intensity score [2]	Potency at 5 SEV [3, 5] [x]	Beidler equation SEV=a*C/(b+C): constant b (concentration) [3] [ppm]	Beidler equation SEV=a*C/(b+C): constant a (maximum SEV) [3] [SEV]	also measured
OC[C@H]1O[C@@](CO)(O[C@H]2O[C@H](CO)[C@@H](O)[C@H](O)[C@H]2O)[C@@H](O)[C@@H]1O [sucrose]												sweet linger decay time (typical value) [1]: 20 to 25 s
C=C1C[C@@]23CC[C@H]4[C@@](C)(CCC[C@@]4(C)C(=O)O[C@@H]4O[C@H](CO)[C@@H](O)[C@H](O[C@@H]5O[C@H](CO)[C@@H](O)[C@H](O)[C@H]5O)[C@H]4O[C@@H]4O[C@H](CO)[C@@H](O)[C@H](O)[C@H]4O)[C@@H]2CC[C@]1(O[C@@H]1O[C@H](CO)[C@@H](O)[C@H](O[C@@H]2O[C@H](CO)[C@@H](O)[C@H](O)[C@H]2O)[C@H]1O[C@@H]1O[C@H](CO)[C@@H](O)[C@H](O)[C@H]1O)C3 [Rebaudioside M, rebaudioside M]	2.0¤	1.7¤	11.2¤	3.5¤	1.6¤	1.0¤	17.3¤	36.4¤				
C[C@H](CC[C@@H](O[C@@H]1O[C@H](CO[C@@H]2O[C@H](CO)[C@@H](O)[C@H](O)[C@H]2O)[C@@H](O)[C@H](O)[C@H]1O[C@@H]1O[C@H](CO)[C@@H](O)[C@H](O)[C@H]1O)C(C)(C)O)[C@H]1CC[C@@]2(C)[C@@H]3CC=C4[C@@H](CC[C@H](O)C4(C)C)[C@]3(C)[C@H](O)C[C@]12C [Mogroside IIIA-1, mogroside III-A1]									71	139.9	6.00	bitter taste still present after expectorating [4]: more than 60 seconds
C[C@H](CC[C@@H](O[C@@H]1O[C@H](CO[C@@H]2O[C@H](CO)[C@@H](O)[C@H](O)[C@H]2O)[C@@H](O)[C@H](O)[C@H]1O[C@@H]1O[C@H](CO)[C@@H](O)[C@H](O)[C@H]1O)C(C)(C)O)[C@H]1CC[C@@]2(C)[C@@H]3CC=C4[C@@H](CC[C@H](O[C@@H]5O[C@H](CO[C@@H]6O[C@H](CO)[C@@H](O)[C@H](O)[C@H]6O)[C@@H](O)[C@H](O)[C@H]5O)C4(C)C)[C@]3(C)[C@H](O)C[C@]12C [Mogroside V, mogroside V]									185	920.8	22.03	Astringent, average intensity score ([2]; listed as Mog·V): 2.5¤; Bitterness, average intensity score ([2]; listed as Mog·V): 1.4¤; Body, average intensity score ([2]; listed as Mog·V): 12.1¤; Caramel, average intensity score ([2]; listed as Mog·V): 4.5¤; Fruity, average intensity score ([2]; listed as Mog·V): 3.0¤; Licorice, average intensity score ([2]; listed as Mog·V): 0.7¤; Sweet Linger, average intensity score ([2]; listed as Mog·V): 14.3¤; Sweetness, average intensity score ([2]; listed as Mog·V): 36.3¤; times as sweet as sucrose at 5 SEV ([3]; in spring water, listed as purified Mog-V): ~200 times as sweet as sucrose; times as sweet as sucrose at 5 SEV ([3]; in spring water, running text, listed as mogroside V): 185 times as sweet as sucrose; times as sweet as sucrose at 5 SEV ([3]; in spring water, running text, listed as mogroside-V): about 185 times as sweet as sucrose; Potency at 10 SEV ([3]; 10 SEV, in spring water, from Beidler curve, beyond tested concentrations): 131x
C[C@H](CC[C@@H](O[C@@H]1O[C@H](CO[C@@H]2O[C@H](CO)[C@@H](O)[C@H](O)[C@H]2O)[C@@H](O)[C@H](O)[C@H]1O[C@@H]1O[C@H](CO)[C@@H](O)[C@H](O)[C@H]1O)C(C)(C)O)[C@H]1CC[C@@]2(C)[C@@H]3CC=C4[C@@H](CC[C@H](O[C@@H]5O[C@H](CO[C@@H]6O[C@H](CO)[C@@H](O)[C@H](O)[C@H]6O)[C@@H](O)[C@H](O)[C@H]5O)C4(C)C)[C@]3(C)C(=O)C[C@]12C [11-oxo-mogroside V]									28	546.3	6.56	times as sweet as sucrose at 5 SEV ([3]; in spring water, running text, listed as 11-oxo mogroside-V): approximately 28 times as sweet as sucrose; times as sweet as sucrose at 5 SEV ([3]; in spring water, running text, listed as 11-oxo-mogroside-V): 28 times as sweet as sucrose
C=C1C[C@@]23CC[C@H]4[C@@](C)(CCC[C@@]4(C)C(=O)O[C@@H]4O[C@H](CO)[C@@H](O)[C@H](O)[C@H]4O)[C@@H]2CC[C@]1(O[C@@H]1O[C@H](CO)[C@@H](O)[C@H](O[C@@H]2O[C@H](CO)[C@@H](O)[C@H](O)[C@H]2O)[C@H]1O[C@@H]1O[C@H](CO)[C@@H](O)[C@H](O)[C@H]1O)C3 [Rebaudioside A, rebaudioside A]	3.7¤	11.2¤	9.1¤	1.9¤	1.3¤	2.7¤	9.6¤	35.1¤				
